Test results from patent US9421206B1, “Hematological treatments based on levomefolate” (Cox Bioscience LLC, priority 2013, dated 2016).
Like-named read-outs stand apart in the source and are kept apart here.

Experiments:
[1] = test system: Megaloblastic Bone Marrow Cells (Folate Deficiency); settings: cited from earlier work
[2] = test system: Megaloblastic Bone Marrow Cells (B12 Deficiency); settings: cited from earlier work
[3] = Evaluation of NHANES 1999-2002 data: hematological markers by serum folate decile, supplement use and unmetabolized folic acid; format: in vivo, human; settings: for effect on production of hemoglobin: seniors aged >=60 y, serum hemoglobin with rising serum folate, with or without unmetabolized folic acid; for impact on homocysteine, methylmalonic acid and lactate dehydrogenase: when homocysteine or lactate dehydrogenase levels are elevated; for effect on MCV: with rising serum folate, with or without supplement use
Text: An evaluation of data gathered through NHANES was undertaken to determine the effect of unmetabolized folic acid on serum hemoglobin concentrations. NHANES monitors the nation's health and nutritional status. The survey is currently implemented as a continuous annual survey and uses a complex multistage probability design to select a representative sample of the non-institutionalized US civilian population. Consistent with NHANES analytic guidelines, this example combines data from two separate survey periods spanning 1999-2002. The methods used herein are described in greater detail in Morris et al., AM. J. CLIN. NUTR. 2012; 91:1733-44, and are repeated herein for a more thorough understanding. A detailed description of blood collection and processing can be found in the NHANES Laboratory Procedures Manual. This particular example focuses on seniors (i.e., those aged ≧60 y), and included 3706 senior survey participants. Hemoglobin concentrations were measured at the MEC laboratory by using a MAXM hematology flow cytometer (Beckman Coulter Inc, Fullerton, Calif.). Detailed methods for all the biochemical assays can be found in the NHANES Laboratory Procedures Manuals. Eligible participants were divided into ten […] based on their serum folate concentrations, so that decile 1 includes the 10% of the participants having the lowest serum folate concentrations, decile 10 includes the 10% of the participants having the highest serum folate concentrations. etc. Participants in each decile were then further subdivided based on the detection of unmetabolized folic acid, and/or the participant's serum B12 or serum iron concentration, and mean hemoglobin concentrations calculated for each decile. Data analyses were performed by using SUDAAN release 9.0 (Research Triangle Institute, Research Triangle Park, N.C.) with appropriate sampling weights, pseudo primary sampling units, and stratification variables to account for the survey's complex sampling design.

[4] = Reanalysis of NHANES 1988-1994 vs 1999-2004: impact of folic acid supplement use on anemia and macrocytosis; format: in vivo, human; settings: men; 1988-1994 to 1999-2004, with increased use of folic acid supplements
Text: In order to determine whether folic acid supplements could be affecting the incidence of macrocytosis in the United States or whether folic acid supplements could be negatively influencing macrocytic processes, NHANES data reported in Ganji et al., AM. J. CLIN. NUTR. 2009; 89:363-71, were reanalyzed, this time over an extended time period from 1988-1994 until 1999-2004, to determine the impact of supplement use on the incidence of macrocytosis and mean corpuscular volume. Unless otherwise indicated, NHANES data collection methods were substantially the same as in Examples 1 and 2. This study used data from 4 surveys: NHANES 1988-1994, NHANES 1999-2000, NHANES 2001-2002, and NHANES 2003-2004. […] For NHANES 1988-1994 and 1999-2004, multivariate-adjusted and univariate values for hemoglobin, hematocrit, and MCV and prevalence rates (%) for overall anemia and macrocytosis were determined according to sex, race-ethnicity, age, poverty, and vitamin/mineral supplement use (yes or no). Prevalence of anemia (%) based on low hemoglobin concentrations and prevalence of macrocytosis (%) based on high MCV values were determined for the aforementioned demographic categories. The differences in hemoglobin, hematocrit, MCV, and prevalence of anemia and macrocytosis between NHANES 1988-1994 and NHANES 1999-2004 were determined with a 2-tailed unpaired t test. […]

[5] = apparently healthy human subjects; cited from earlier work
[6] = concentration 0.3 (unit not given)
[7] = concentration 1 (unit not given)
[8] = concentration 3 (unit not given)
[9] = concentration 6 (unit not given)
[10] = concentration 30 (unit not given)
[11] = B12 deficiency, concentration 0.3 (unit not given)
[12] = B12 deficiency, concentration 1 (unit not given)
[13] = B12 deficiency, concentration 3 (unit not given)
[14] = B12 deficiency, concentration 6 (unit not given)
[15] = B12 deficiency, concentration 15 (unit not given)
[16] = B12 deficiency, concentration 30 (unit not given)
[17] = concentration 15 (unit not given)
[18] = concentration 300 (unit not given)
[19] = B12 deficiency, concentration 75 (unit not given)
[20] = B12 deficiency, concentration 300 (unit not given)

| Molecule | dU suppression test value [1, 6] [%] | dU suppression test value [1, 7] [%] | dU suppression test value [1, 8] [%] | dU suppression test value [1, 9] [%] | dU suppression test value [1, 10] [%] | dU suppression test value [2, 11] [%] | dU suppression test value [2, 12] [%] | dU suppression test value [2, 13] [%] | dU suppression test value [2, 14] [%] | dU suppression test value [2, 15] [%] | dU suppression test value [2, 16] [%] | effect on production of hemoglobin [3] | impact on homocysteine, methylmalonic acid and lactate dehydrogenase [3] | effect on MCV [3] | dU suppression test value [1, 17] [%] | dU suppression test value [1, 18] [%] | dU suppression test value [2, 19] [%] | dU suppression test value [2, 20] [%] | other results |
| --- | --- | --- | --- | --- | --- | --- | --- | --- | --- | --- | --- | --- | --- | --- | --- | --- | --- | --- | --- |
| Nc1nc(=O)c2c([nH]1)NCC(CNc1ccc(C(=O)N[C@@H](CCC(=O)O)C(=O)O)cc1)N2C=O (mixture of isomers) [folinic acid] | 3.4 | 1.9 | 1.9 | 1.3 | 1.0 | 4.5 | 2.5 | 1.9 | 2.0 | 2.2 | 1.6 | – | – | – | – | – | – | – | effectiveness in overcoming the defect in DNA precursor synthesis ([2]; all types of vitamin deficiency): most effective |
| Nc1nc2ncc(CNc3ccc(C(=O)N[C@@H](CCC(=O)O)C(=O)O)cc3)nc2c(=O)[nH]1 [folic acid] | – | 10.3 | – | – | – | – | 14.8 | 12 | – | – | – | reduces the production of hemoglobin | negative impact | leads to increases in MCV | – | – | – | – | dU suppression test value ([1]; concentration 5 (unit not given)): 5.5%; dU suppression test value ([1]; concentration 50 (unit not given)): 2.3%; effect on MCV in survey participants with elevated LDH levels ([3]; LDH > 198 U/L, as folate concentrations increased): increased the MCV; effect on red cell count ([3]; same folate levels, with vs without folic acid supplements): red cell count is improved in the absence of folic acid; dU suppression test value ([2]; B12 deficiency, concentration 50 (unit not given)): 4.1%; incidence of macrocytosis [4]: increased; prevalence of anemia [4]: dropped |
| CN1c2c(nc(N)[nH]c2=O)NC[C@@H]1CNc1ccc(C(=O)N[C@@H](CCC(=O)[O-])C(=O)[O-])cc1.[Ca+2] [me-THF, L-5-methyltetrahydrofolate] | – | – | 3.9 | 4.6 | 4.5 | – | – | 16.1 | – | – | 12.9 | promotes the production of hemoglobin | positive impact | generally leads to a reduction in MCV | 2.7 | 4.3 | 18.4 | 15.7 | effect on homocysteine levels [5]: decrease homocysteine levels; concentration restoring normal dU suppression ([2]; vitamin B12 deficiency): > 300 µg/mL |
| tetrahydrofolate [THF] | 14.3 | 8.6 | 4.0 | 2.5 | 2.2 | 10.8 | 8.1 | 9.3 | 6.3 | 4.9 | 5.0 | – | – | – | 2.1 | 1.9 | 3.5 | 2.4 | level giving correction of dU suppression ([2]; megaloblastic anemia due to vitamin B12 deficiency): above 6 mL/ml |
| α-(5,6-dimethylbenzimidazolyl)cobamide [B12] | – | – | – | – | – | – | – | – | – | – | – | – | – | – | – | – | – | – | dU suppression test value ([1]; 10 mcg/ml): 12.3%; dU suppression test value ([1]; 100 mcg/ml): 16.3%; dU suppression test value ([2]; B12 deficiency, 10 mcg/ml): 5.8%; dU suppression test value ((3H)-TdR incorporation with dU as percentage of incorporation without dU) ([2]; B12 deficiency, 100 mcg/ml): 5.7% |
